Measurements: patent US20160051543A1 (CHANRX CORPORATION, priority 2013, published 2016)

Key:
[1] = Plasma concentrations after a single 300 mg dose of vanoxerine in 25 patients (Example 1); assay type: in vivo, human; settings: any time point
Experimental: Each patient gave samples before administration of their dose, and then again at nine further time points, 30 minutes after administration, 1, 2, 3, 4, 6, 8, 12, and 24 hours post administration.

clinical = settings: human, in vivo
Excerpt: The results are listed below in Table 7.

[2] = human, in vivo
Experimental: A standardized meal was served 15 minutes prior to each dosing.
The non-linear kinetics may be due to increasing bioavailability at higher doses based on a saturation of first pass metabolism.

[3] = Daily dosing for 7 days in four patients (Example 4); assay type: in vivo, human
[4] = system: recent onset symptomatic AF/AFL; experiment: Double-blinded placebo-controlled study, conversion of recent onset symptomatic AF/AFL to sinus rhythm (Example 6); assay type: in vivo, human
Experimental: (§1) The vanoxerine or identical appearing placebo was randomly assigned and administered in a double-blinded fashion.
Accordingly, a measurement of the improvement comprises a comparison to the rate of conversion of placebo, wherein the improvement is based on the percent increase in conversion over placebo. The 200 mg, having an improvement of conversion of 38%, 96%, and 55% at the above time points, 300 mg: 207%, 126%, and 68%, and the 400 mg: 300%, 230%, and 121%.
Definition of “pure” atrial flutter: only Atrial Flutter (no AF) seen at −30, −15, and 0 time points. Conversion at any time within 24 hours.
The highest oral dose of 400 mg achieved a conversion rate of 76% at 8 hours and 84% within 24 hours.

[5] = Adverse events in the AF/AFL conversion study (Example 6); assay type: in vivo, human
Excerpt: as §1

[6] = system: conversion to normal sinus rhythm; experiment: Human plasma concentration charted against conversion to normal sinus rhythm; assay type: in vivo
Experimental: This study favorable compares favorably to human models where plasma concentration is charted against conversion to normal sinus rhythm. […] However, most conversions occurred in the range of about 60 ng/ml. Accordingly, modifying doses to reach 60 ng/ml or higher is preferred for effective conversion to normal sinus rhythm.

[7] = cited from earlier work
[8] = cited from earlier work; remark: listed apart in the source
[9] = between patients; cited from earlier work

**Q.** Which “Highest plasma level, low concentration group” value [1] does the source give for Fc1ccc(C(OCCN2CCN(CCCc3ccccc3)CC2)c2ccc(F)cc2)cc1 [Vanoxerine, 1-[2-[bis(4-fluorophenyl)methoxy]ethyl]-4-(3-phenylpropyl)piperazine] here?
**A.** ~40 ng/mL

**Q.** What about the “PK linearity / dose proportionality” value (clinical) of the same compound?
**A.** linear and dose proportional

**Q.** And the “TMax (mean +− SD)” value (clinical)?
**A.** TMax 1.27 +− 0.5 hr

**Q.** And the TMax range (clinical; 50 mg)?
**A.** (0.5-2.0) hr

**Q.** What about the half-life (clinical; 50 mg) of the same compound?
**A.** 4.71 to 111 h

**Q.** What about the half-life (clinical; 75 mg) of the same compound?
**A.** 10.3 to 117 h

**Q.** What about the half-life (clinical; 100 mg) of the same compound?
**A.** 5.56 to 125 h

**Q.** And the “All patients achieved steady state after” value [2]?
**A.** 7 to 10 days

**Q.** What about the “Dose proportionality of steady-state serum levels” value [2] of the same compound?
**A.** disproportionately and statistically greater levels at higher doses

**Q.** What about the “Steady-state plasma concentrations achieved after” value [2] of the same compound?
**A.** 3 days

**Q.** What about the “Systolic blood pressure and heart rate” value ([3]; 100 mg for 7 days) of the same compound?
**A.** increases in systolic blood pressure and heart rate were seen

**Q.** And the “Time to steady-state levels” value ([3]; all patients, 50, 100, 150 mg daily)?
**A.** within one week

**Q.** What about the “Improvement of conversion (percent increase over placebo)” value ([4]; 200 mg, 0-4 hours) of the same compound?
**A.** 38%

**Q.** What about the “Improvement of conversion (percent increase over placebo)” value ([4]; 200 mg, 0-8 hours) of the same compound?
**A.** 96%

**Q.** And the “Improvement of conversion (percent increase over placebo)” value ([4]; 200 mg, 0-24 hours)?
**A.** 55%

**Q.** What about the “Improvement of conversion (percent increase over placebo)” value ([4]; 300 mg, 0-24 hours) of the same compound?
**A.** 68%

**Q.** What about the “Improvement of conversion (percent increase over placebo)” value ([4]; 400 mg, 0-4 hours) of the same compound?
**A.** 300%

**Q.** What about the “Improvement of conversion (percent increase over placebo)” value ([4]; 400 mg, 0-8 hours) of the same compound?
**A.** 230%

**Q.** What about the “Dose dependence of conversion to sinus rhythm” value ([4]; doses of 200, 300 and 400 mg) of the same compound?
**A.** highly statistically significant dose dependent increase

**Q.** And the “Number of adverse events reported” value ([5]; 200 mg (22))?
**A.** 8 AEs

**Q.** And the “Number of serious adverse events” value ([5]; 200 mg (22))?
**A.** 1 SAE

**Q.** And the “Number of adverse events reported” value ([5]; 300 mg (25))?
**A.** 12 AEs

**Q.** And the “Number of adverse events reported” value ([5]; 400 mg (25))?
**A.** 23 AEs

**Q.** And the “Number of serious adverse events” value ([5]; 400 mg (25))?
**A.** 1 SAE

**Q.** And the Tolerability ([5]; all doses)?
**A.** well tolerated at all doses

**Q.** And the “1:1 AFL post dose” value ([5]; any subject)?
**A.** No 1:1 AFL seen post dose in any subject

**Q.** What about the Proarrhythmia ([5]; conversion of recent onset symptomatic AF and AFL) of the same compound?
**A.** absence of proarrhythmia

**Q.** What about the “Serious adverse events in the study” value ([5]; one at 200 mg, one at 400 mg, neither related to the study drug) of the same compound?
**A.** two

**Q.** And the “Concentration at which most conversions occurred” value [6]?
**A.** about 60 ng/ml

**Q.** And the AUC ([7]; fasting (no food intake for eight hours))?
**A.** lowest AUC

**Q.** What about the Cmax ([7]; high-fat diet (about 73 g fat) versus fasting and low-fat) of the same compound?
**A.** significantly increased Cmax

**Q.** What about the “Time the concentration remains elevated” value ([7]; high-fat diet) of the same compound?
**A.** four to six hours

**Q.** And the tmax ([7]; high-fat diet)?
**A.** nearly two and a half hours

**Q.** What about the Plasma half-life ([8]; in vivo) of the same compound?
**A.** about 22 hours

**Q.** What about the “Steady state achieved within” value ([8]; oral dosing, some cases) of the same compound?
**A.** ≤ 3 days

**Q.** What about the “Difference in Cmax concentrations or AUC between slower and higher metabolism groups” value [9] of the same compound?
**A.** ≥ 10 fold
